Data published in patent US5552422A, “Aryl substituted 5,5 fused aromatic nitrogen compounds as anti-inflammatory agents” (Merck Frosst Canada, Inc., priority 1995, dated 1996).
pIC50: −log10 of the molar value.

Tests used:
rat paw edema = conditions: po, carrageenan paw edema, 3 hr
Experimental: Male Sprague-Dawley rats (150-200 g) were fasted overnight and were given po either vehicle (1% methocel or 5% Tween 80) or a test compound. One hr later, a line was drawn using a permanent marker at the level above the ankle in one hind paw to define the area of the paw to be monitored. The paw volume (V0) was measured using a plethysmometer (Ugo-Basile, Italy) based on the principle of water displacement. The animals were then injected subplantarly with 50 μl of 1% carrageenan solution in saline (FMC Corp, Maine) into the paw using an insulin syringe with a 25-gauge needle (i.e., 500 μg carrageenan per paw). Three hr later, the paw volume (V3) was measured and the increases in paw volume (V3 -V0) were calculated. The animals were sacrificed by CO2 aphyxiation and the absence or presence of stomach lesions scored. Data were compared with the vehicle-control values and percent inhibition calculated. […] All treatment groups were coded to eliminate observer bias.

Cox-1 = target: T1, Cox-1 (Homo sapiens, UniProt P23219); assay: Human whole blood assay, Cox-1 (clotting-induced TxB2 production); format: cell-based; conditions: TxB2 following blood clotting
T1 construct: platelets in whole blood contain a large amount of the Cox-1 enzyme; endogenous in cells; host or cells: platelets in fresh human whole blood (clotting)
Experimental: (§1) Immediately following blood clotting, platelets are activated through a thrombin-mediated mechanism.
Aliquots of 500 μL were immediately transferred to siliconized microcentrifuge tubes preloaded with 2 μL of either DMSO or a test compound at final concentrations varying from 10 nM to 30 μM. The tubes were vortexed and incubated at 37° C. for 1 hour to allow blood to clot.
(§2) In the assay, inhibition is determined by measuring the amount of prostaglandin E2 (PGE2) synthesized in the presence of arachidonic acid, cyclooxygenase-1 or cyclooxygenase-2 and a putative inhibitor.

Cox-2 = target: T2, Cox-2 (Homo sapiens, UniProt P35354); assay: Human whole blood assay, Cox-2 (LPS-induced PGE2 production); format: cell-based; conditions: PGE2 after LPS induction, 24 hours
T2 construct: incubation of human whole blood with LPS (lipopoly saccharide), which induces Cox-2; endogenous in cells
T2 sequence (P35354 18-604): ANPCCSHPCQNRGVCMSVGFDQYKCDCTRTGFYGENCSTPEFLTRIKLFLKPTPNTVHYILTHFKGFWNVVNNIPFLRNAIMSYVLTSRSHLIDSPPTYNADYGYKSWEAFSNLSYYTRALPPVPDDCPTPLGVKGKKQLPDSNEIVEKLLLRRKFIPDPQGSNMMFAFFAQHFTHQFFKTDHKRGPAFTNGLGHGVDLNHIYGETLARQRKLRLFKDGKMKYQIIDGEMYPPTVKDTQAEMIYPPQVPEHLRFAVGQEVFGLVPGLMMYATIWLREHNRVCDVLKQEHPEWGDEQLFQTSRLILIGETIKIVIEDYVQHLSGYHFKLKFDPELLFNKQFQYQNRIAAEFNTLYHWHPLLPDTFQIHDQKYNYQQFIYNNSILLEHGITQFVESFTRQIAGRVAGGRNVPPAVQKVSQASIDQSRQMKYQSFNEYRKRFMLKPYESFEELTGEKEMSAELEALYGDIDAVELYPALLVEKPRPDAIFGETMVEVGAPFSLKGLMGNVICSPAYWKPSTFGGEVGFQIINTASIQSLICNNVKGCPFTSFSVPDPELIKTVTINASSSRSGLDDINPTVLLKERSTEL
Experimental: as §1
Fresh blood was collected in heparinized tubes by venipuncture from both male and female volunteers. The subjects had no apparent inflammatory conditions and had not taken any NSAIDs for at least 7 days prior to blood collection. Plasma was immediately obtained from a 2 mL blood aliquot to use as blank (basal levels of PGE2).
as §2

T1 sequence (P23219 24-599): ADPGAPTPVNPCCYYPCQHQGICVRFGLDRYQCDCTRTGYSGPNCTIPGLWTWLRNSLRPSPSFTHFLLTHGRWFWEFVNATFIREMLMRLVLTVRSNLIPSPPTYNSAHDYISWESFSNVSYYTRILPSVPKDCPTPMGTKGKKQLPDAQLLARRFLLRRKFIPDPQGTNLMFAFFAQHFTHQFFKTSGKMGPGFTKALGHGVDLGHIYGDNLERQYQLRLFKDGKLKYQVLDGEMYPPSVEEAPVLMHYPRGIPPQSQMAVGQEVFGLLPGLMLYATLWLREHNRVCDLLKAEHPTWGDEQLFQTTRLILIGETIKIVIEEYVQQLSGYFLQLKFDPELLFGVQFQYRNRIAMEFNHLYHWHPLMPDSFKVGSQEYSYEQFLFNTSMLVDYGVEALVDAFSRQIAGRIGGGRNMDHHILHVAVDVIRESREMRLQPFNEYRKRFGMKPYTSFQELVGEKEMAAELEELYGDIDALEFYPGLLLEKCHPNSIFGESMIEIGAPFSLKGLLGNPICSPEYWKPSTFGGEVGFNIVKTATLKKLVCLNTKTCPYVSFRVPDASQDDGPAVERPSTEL

Row | Compound | ED50 (rat paw edema) [mg/kg] | pIC50 (Cox-1) | pIC50 (Cox-2)
1 | COc1ccc2c(c1)c(CC(=O)O)c(C)n2C(=O)c1ccc(Cl)cc1 [Indomethacin, indomethacin] | 2 |  | 
2 | CS(=O)(=O)c1ccc(-c2c(-c3ccccc3)nc3sccn23)cc1 [Example 1, 5-(4-(Methylsulfonyl)phenyl)-6-phenylimidazo[2,1-b]thiazole] |  | < 4.52 | 6.48
